Here are results for one compound from patent publication US6545029B2, “Phenylserine derivatives as integrin antagonists” (Bayer Aktiengesellschaft, priority 2000, dated 2003).

The assay addresses T1, αvβ3 from human placenta (Homo sapiens, UniProt P05106+P06756).
T1 construct: αvβ3 from human placenta; from tissue; host or cells: human placenta
The assay can be described thus: αvβ3/echistatin binding inhibition (I125-echistatin, scintillation proximity beads). The conditions noted are these: inhibition of I125-echistatin binding to αvβ3; 1 hour at room temperature; determined in duplicate from concentration series. On the procedure: The substances were tested for their ability to inhibit αvβ3/echistatin binding analogously to Kumar C. C., Nie H. M., Rogers G. P., Malkowski M., Maxwell E., Catino J. J. and Armstrong L. (Journal of Pharmacology and Experimental Therapeutics 283(2)(1997)843-853).
αvβ3 from human placenta (Smith J. W. and Cheresh, D. A. (1988), J. Biol. Chem. 263, 18726-18732) (1 mg/ml 50 mM tris HCl pH 7.4, 100 mM NaCl, 2 mM CaCl2, 1% and octylglucoside) was diluted with test buffer (50 mM tris-HCl pH 7.4, 100 mM NaCl, 1 mM CaCl2, 1 mM MgCl2, 1 mM MnCl2, 0.1% bovine serum albumin) and 55 μl each of this αvβ3 solution were added to the wells of a 96-well microtiter plate (about 0.1-0.3 μg of αvβ3 per well). 2 μl of the substances to be tested dissolved in DMSO were then added. 10 μl (40,000 cpm) of I^125-echistatin per well were then added and the mixture was incubated for 1 hour at room temperature with careful shaking. It was then treated with 100 μg of wheatgerm-coated yttrium silicate beads (Amersham, type RPNQ0011) in 25 μl of distilled water. After 1 hour at room temperature, the cpm values were measured in a scintillation counter. The Ki values were determined in duplicate from concentration series. The nonspecific binding was determined in the presence of 0.1 μM unlabeled echistatin or by addition of 5 mM EDTA to the binding mixture.

T1 sequence (P06756 31-889 limits assumed): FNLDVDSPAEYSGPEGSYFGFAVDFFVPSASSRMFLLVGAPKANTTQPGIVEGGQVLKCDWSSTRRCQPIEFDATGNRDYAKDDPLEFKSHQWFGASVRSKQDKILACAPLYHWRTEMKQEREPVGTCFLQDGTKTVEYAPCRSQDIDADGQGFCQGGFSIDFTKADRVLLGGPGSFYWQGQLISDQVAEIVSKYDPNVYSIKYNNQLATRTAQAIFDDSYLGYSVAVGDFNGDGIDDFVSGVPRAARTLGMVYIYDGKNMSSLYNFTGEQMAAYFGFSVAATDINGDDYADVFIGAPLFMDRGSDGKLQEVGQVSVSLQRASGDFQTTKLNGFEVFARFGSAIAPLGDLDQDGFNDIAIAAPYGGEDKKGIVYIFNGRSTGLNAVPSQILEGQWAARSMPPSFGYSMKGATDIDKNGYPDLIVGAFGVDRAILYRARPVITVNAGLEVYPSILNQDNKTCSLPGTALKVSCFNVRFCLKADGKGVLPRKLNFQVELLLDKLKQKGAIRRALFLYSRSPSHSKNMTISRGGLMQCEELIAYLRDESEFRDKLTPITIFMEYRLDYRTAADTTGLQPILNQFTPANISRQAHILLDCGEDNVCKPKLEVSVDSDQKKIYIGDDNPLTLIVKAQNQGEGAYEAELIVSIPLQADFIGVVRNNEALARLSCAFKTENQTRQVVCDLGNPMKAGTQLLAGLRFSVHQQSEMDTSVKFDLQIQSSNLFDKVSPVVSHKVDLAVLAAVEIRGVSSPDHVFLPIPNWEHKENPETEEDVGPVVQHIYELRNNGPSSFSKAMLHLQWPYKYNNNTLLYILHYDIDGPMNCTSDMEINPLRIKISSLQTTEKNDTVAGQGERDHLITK
T1 sequence (P06756 891-1048 partner limits assumed): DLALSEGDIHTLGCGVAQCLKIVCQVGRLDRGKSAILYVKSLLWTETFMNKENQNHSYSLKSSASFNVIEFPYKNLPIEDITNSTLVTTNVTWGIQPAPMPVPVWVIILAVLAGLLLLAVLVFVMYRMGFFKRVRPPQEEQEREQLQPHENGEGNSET
T1 sequence (P05106 27-788): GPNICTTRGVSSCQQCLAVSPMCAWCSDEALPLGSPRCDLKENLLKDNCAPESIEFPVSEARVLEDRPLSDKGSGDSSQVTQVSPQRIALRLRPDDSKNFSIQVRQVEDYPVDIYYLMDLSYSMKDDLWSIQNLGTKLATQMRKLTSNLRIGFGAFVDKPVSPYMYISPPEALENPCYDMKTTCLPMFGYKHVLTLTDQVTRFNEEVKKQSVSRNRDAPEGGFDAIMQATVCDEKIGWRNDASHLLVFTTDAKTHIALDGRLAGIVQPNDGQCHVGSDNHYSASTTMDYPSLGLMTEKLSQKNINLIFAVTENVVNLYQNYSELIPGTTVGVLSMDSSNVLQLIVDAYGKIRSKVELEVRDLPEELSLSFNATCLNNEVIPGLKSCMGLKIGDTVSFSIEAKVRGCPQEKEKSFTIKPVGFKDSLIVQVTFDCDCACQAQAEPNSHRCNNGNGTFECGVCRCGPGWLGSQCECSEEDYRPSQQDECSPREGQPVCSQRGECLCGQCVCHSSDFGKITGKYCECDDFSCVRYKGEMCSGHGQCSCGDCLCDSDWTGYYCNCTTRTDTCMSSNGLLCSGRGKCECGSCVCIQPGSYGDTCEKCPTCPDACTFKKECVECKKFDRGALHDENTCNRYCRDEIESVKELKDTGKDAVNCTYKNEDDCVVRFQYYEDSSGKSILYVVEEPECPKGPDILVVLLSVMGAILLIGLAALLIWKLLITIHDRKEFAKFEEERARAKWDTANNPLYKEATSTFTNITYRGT

In turn, `CCCNC(=O)Nc1cccc(-c2ccc(OC[C@H](NS(=O)(=O)c3c(C)cc(C)cc3C)C(=O)O)cc2)c1` [Example 20, N-(Mesitylsulfonyl)-O-(3′-{[(propylamino)carbonyl]amino}-1,1′-biphenyl-4-yl)-L-serine] showed a Ki of 4 nM.
